These results are taken from patent publication US20260102501A1, “ANTI-CANCER NUCLEAR HORMONE RECEPTOR-TARGETING COMPOUNDS” (Nuvation Bio Inc., priority 2022, published 2026).

In one assay the test system is LNCap cells. Kind of assay: Cell viability assay (CellTiterGlo). The class given is cell-based. The settings on record: Homo sapiens, 144 h; for IC50: read-out: LNCap (IC50, nM); for pIC50: 6 days incubation, CellTiterGlo, read-out: LNCap (IC50). A general note: In ATP-based viability assays light output follows the ATP content of the culture.
The next assay has as its system 22Rv1 cells. Kind of assay: Cell viability assay (CellTiterGlo). The settings on record: Homo sapiens, 22Rv1, 144 h, read-out: 22RV1 (IC50, nM).
In assay [1] the target is T1, AR (cytosol from LnCaP cells) (Homo sapiens, UniProt P10275, T878A).
T1 sequence (P10275 1-920 T878A): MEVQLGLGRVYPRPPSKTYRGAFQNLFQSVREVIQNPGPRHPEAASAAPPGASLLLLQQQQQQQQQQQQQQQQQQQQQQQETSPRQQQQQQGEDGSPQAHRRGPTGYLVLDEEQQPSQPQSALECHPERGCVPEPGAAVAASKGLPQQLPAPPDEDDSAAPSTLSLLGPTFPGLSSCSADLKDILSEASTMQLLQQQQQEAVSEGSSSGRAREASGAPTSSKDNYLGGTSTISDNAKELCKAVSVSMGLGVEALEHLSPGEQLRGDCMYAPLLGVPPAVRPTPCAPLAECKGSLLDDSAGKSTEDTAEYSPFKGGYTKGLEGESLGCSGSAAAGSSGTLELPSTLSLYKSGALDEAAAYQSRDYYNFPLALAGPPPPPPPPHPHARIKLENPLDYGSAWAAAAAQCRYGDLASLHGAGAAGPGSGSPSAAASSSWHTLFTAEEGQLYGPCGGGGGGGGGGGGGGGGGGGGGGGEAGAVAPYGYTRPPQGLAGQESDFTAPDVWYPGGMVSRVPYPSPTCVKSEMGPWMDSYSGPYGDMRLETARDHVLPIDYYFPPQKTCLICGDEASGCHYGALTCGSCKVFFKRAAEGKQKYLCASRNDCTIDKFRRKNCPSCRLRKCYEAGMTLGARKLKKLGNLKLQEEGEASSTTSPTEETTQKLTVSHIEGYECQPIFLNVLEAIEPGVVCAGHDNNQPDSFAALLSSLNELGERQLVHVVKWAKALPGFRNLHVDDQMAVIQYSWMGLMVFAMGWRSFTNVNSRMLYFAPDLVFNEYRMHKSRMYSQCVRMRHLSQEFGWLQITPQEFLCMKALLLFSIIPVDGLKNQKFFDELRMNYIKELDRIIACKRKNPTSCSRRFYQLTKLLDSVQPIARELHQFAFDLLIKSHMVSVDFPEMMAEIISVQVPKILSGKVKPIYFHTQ
Description: AR binding assay (3H-R1881 displacement).
Description: The plate was then centrifuged at 3000 rpm for 30 minutes at 4° C.

A further assay deals with IEC6 cells. Description: Cell viability assay (CellTiterGlo). The settings on record: Rattus norvegicus, IEC-6, 144 h, read-out: IEC-6 (IC50, nM).

pIC50: −log10 of the molar value. Where two headings read alike, the source gives them in different places.

Description for 22Rv1 cells: (§1) Cell viability assay: LNCap, 22Rv1, MCF7, MDAMB361, T47D, and IEC6 cells were seeded at a density of 500-2000 cells/well in 96 well plates, and a ‘T0’ (timepoint 0) was included along with the assay plate. The plates were then incubated at 37° C., 5% CO2 in a cell culture incubator overnight. On the next day, the ‘T0’ plate was assayed using CellTiterGlo (Promega, Inc) according to the manufacturer's instructions. The appropriate compounds were diluted in DMSO and added to the assay plate (final DMSO concentration of 0.1-0.2%) on the next day. The assay plates were incubated for 6 days at 37° C., 5% CO2. After the incubation period, the plates were assayed using CellTiterGlo (Promega, Inc) according to the manufacturer's instructions and luminescence was read on the En Vision plate reader. […] GraphPadPrism was used to analyze the data and determine GI50/IC50 values.
Description for IEC6 cells: as §1

One may read the IC50 as the concentration at which inhibition is half-maximal. One may read the pIC50 as the negative decadic logarithm of the IC50, by convention in mol/L. In the case of `CC[C@@]1(O)C(=O)OCc2c1cc1n(c2=O)Cc2cc3c(CN4CCN(C(=O)C5CCN(c6ccc(C(=O)N[C@H]7CC[C@H](Oc8ccc(C#N)c(Cl)c8)CC7)nn6)CC5)CC4)c(OC(=O)N(C)c4ccccc4)ccc3nc2-1` [Compound 2, (S)-10-((4-(1-(6-(((1r,4r)-4-(3-Chloro-4-cyanophenoxy)cyclohexyl)carbamoyl)pyridazin-3-yl)piperidine-4-carbonyl)piperazin-1-yl)methyl)-4-ethyl-4-hydroxy-3,14-dioxo-3,4,12,14-tetrahydro-1H-pyrano[3′,4′:6,7]indolizino[1,2-b]quinolin-9-yl Methyl(phenyl)carbamate], the IC50 in the assay with LNCap cells and in the assay on 22Rv1 cells was above 1000 nM each time. Further, the negative logarithm of the IC50 (pIC50) in assay [1] is 6.00 to 7.00.

Take `CC[C@@]1(O)C(=O)OCc2c1cc1n(c2=O)Cc2cc3c(CN(C)C(=O)C(C)(C)N(C)C(=O)CO[C@H]4CC[C@H]5[C@@H]6CC[C@H]7CC(=O)CC[C@]7(C)[C@H]6CC[C@]45C)c(O)ccc3nc2-1` [Compound 4, 2-(2-(((5S,8R,9S,10S,13S,14S,17S)-10,13-Dimethyl-3-oxohexadecahydro-1H-cyclopenta[a]phenanthren-17-yl)oxy)-N-methylacetamido)-N—(((S)-4-ethyl-4,9-dihydroxy-3,14-dioxo-3,4,12,14-tetrahydro-1H-pyrano[3′,4′:6,7]indolizino[1,2-b]quinolin-10-yl)methyl)-N,2-dimethylpropanamide]: the pIC50 in the assay with LNCap cells was 6.00 to 7.00. For the same molecule, the half-maximal inhibitory concentration (IC50) in the assay on 22Rv1 cells fell in the range of 101 to 1000 nM.

For `CC[C@@]1(O)C(=O)OCc2c1cc1n(c2=O)Cc2cc3c(CN(C)C)c(OC(=O)N4CCN(C(=O)CCCCCNC(=O)c5ccc(N6C(=S)N(c7ccc(C#N)c(C(F)(F)F)c7)C(=O)C6(C)C)cc5F)CC4)ccc3nc2-1` [Compound 9, (S)-10-((Dimethylamino)methyl)-4-ethyl-4-hydroxy-3,14-dioxo-3,4,12,14-tetrahydro-1H-pyrano[3′,4′:6,7]indolizino[1,2-b]quinolin-9-yl 4-(6-(4-(3-(4-cyano-3-(trifluoromethyl)phenyl)-5,5-dimethyl-4-oxo-2-thioxoimidazolidin-1-yl)-2-fluorobenzamido)hexanoyl)piperazine-1-carboxylate], the values for the IC50 in the assay with LNCap cells, in the assay with 22Rv1 cells and in the assay with IEC6 cells were 10 to 100 nM, 10 to 100 nM and above 1000 nM, respectively. Further, the negative-log IC50 (pIC50) in assay [1] is below 6.00.

`CC[C@@]1(O)C(=O)OCc2c1cc1n(c2=O)Cc2cc3c(CN4CCN(CC5CCN(c6ccc(C(=O)N[C@H]7CC[C@H](N(C)c8ccc(C#N)c(Cl)c8)CC7)nn6)CC5)CC4)c(O)ccc3nc2-1` [Compound 28, N-((1r,4r)-4-((3-Chloro-4-cyanophenyl)(methyl)amino)cyclohexyl)-6-(4-((4-(((S)-4-ethyl-4,9-dihydroxy-3,14-dioxo-3,4,12,14-tetrahydro-1H-pyrano[3′,4′:6,7]indolizino[1,2-b]quinolin-10-yl)methyl)piperazin-1-yl)methyl)piperidin-1-yl)pyridazine-3-carboxamide]: the negative-log IC50 (pIC50) (with LNCap cells; in assay [1]) was 7.00 to 8.00 in each case. Also, in the assay with 22Rv1 cells, the IC50 is 10 to 100 nM.

As for `CC[C@@]1(O)C(=O)OCc2c1cc1n(c2=O)Cc2cc3c(CN(C)C)c(OC(=O)N4CCN(CC5CCN(c6ccc(N7C(=S)N(c8ccc(C#N)c(Cl)c8)C(=O)C7(C)C)cc6)CC5)CC4)ccc3nc2-1` [Compound 58, (S)-10-((dimethylamino)methyl)-4-ethyl-4-hydroxy-3,14-dioxo-3,4,12,14-tetrahydro-1H-pyrano[3′,4′:6,7]indolizino[1,2-b]quinolin-9-yl 4-((1-(4-(3-(3-chloro-4-cyanophenyl)-5,5-dimethyl-4-oxo-2-thioxoimidazolidin-1-yl)phenyl)piperidin-4-yl)methyl)piperazine-1-carboxylate], the results for the 50% inhibitory concentration (IC50) in the assay on LNCap cells, in the assay with 22Rv1 cells and with IEC6 cells were 101 to 1000 nM, 10 to 100 nM and 101 to 1000 nM, respectively. The pIC50 in assay [1] was 7.00 to 8.00.
